Measured values published in US9000047B2, “Compound inhibiting activation of the enzyme Erk 1/2 to be used in the treatment of neurodegenerative illnesses” (Farmalider, S.A., priority 2010, dated 2015).

Columns and labels:
protein kinase Erk 1/2 = assay: ELISA assay for the detection of the tPA-induced activation of Erk 1/2 in primary hippocampal neurons; type: cell-based, mouse; conditions: for normalised Erk 1/2 values, Mean value (arbitrary units): phospho-Erk 1/2 vs total Erk 1/2, 15 minutes pre-incubation with inhibitor, then tPA 20 μg/ml for 1 hour, tPA alone = 1, negative control 0.61
Description: The capacity to inhibit the activation of the protein kinase Erk 1/2 presented by the Compound of formula (I) has been determined by means of the ELISA (Enzyme-Linked Immunoadsorbent Assay) technique, as described in the Examples section.
In the ELISA assays, neurons from primary cultures of hippocampi isolated from mouse embryos (day 16.5 of gestation) were used, following the protocol described by Goslin and Banker (Goslin K and Banker G (1991) Culturing Nerve Cells, MIT Press, Cambridge, Mass.). This culture was used because the hippocampus is the main region affected in Alzheimer's disease and they are non-transformed cells.
10,000 cells/well were seeded in 96 well plates (Nunc) pre-treated with poly-L-Lys (SIGMA) and left under culture for 7 days.
The treatment with tPA was performed by adding it at 20 μg/ml (without changing the medium), for 1 hour. The treatment with the inhibitor, the compound of formula (I), was performed by means of a 15 minutes pre-incubation prior to the addition of tPA, as described above.
Following the treatments, the cells were fixed with methanol at a temperature of −20° C. for 5 min, and an ELISA assay was performed in order to detect the activation of Erk 1/2.
The wells were washed three times with TBST (Tris-buffered saline, 0.1% Triton® X-100) and blocked with 5% horse serum in TBST for 1 h at 37° C. They were once again washed with TBST, […] of the corresponding primary antibody (anti-phospho-Erk 1/2 Cell Signalling, catalogue number 9101, 1/500 or total Erk 1/2, Upstate catalogue number 06-182 1/1000 in 3% bovine serum albumin in TBST) were added and it was incubated overnight at 4° C.
After 4 washings with TBST, 0.45 μg/ml of the secondary alkaline-phospatase-coupled anti-rabbit antibody (DAKO, 1/800 in 3% bovine serum albumin in TBST) were added and it was kept for 1 h at 37° C.
4 washings with TBST were performed and it was developed using 4-methylumbelliferyl phosphate as the substrate (1 mg/ml in 0.2 M triethanolamine at pH 8.5) for 30 min at room temperature in the dark.
The results were quantified by means of fluorescence reading using the Cytofluor 235 fluorometer with an excitation filter of 360/40 and an emission filter of 460/40.
All the treatments were performed in sextuplicate in each experiment: 3 points for phosphorylated Erk 1/2 and 3 points for total Erk 1/2. At least 4 independent experiments were performed.
The following were used as controls: • 1) cells without treatment (negative control), • 2) cells treated with tPA and without an inhibitor (positive control), and • 3) cells incubated only with the secondary antibody and the substrate (negative control in the ELISA technique). […]

Hippocampal neurons = assay: TUNEL assay for the detection of cellular apoptosis induced by β-amyloid peptide in hippocampal neurons; type: cell-based, mouse
Method: In a second in vitro assay, the apoptosis in nerve cells was measured by means of the TUNEL technique described in R. Sgonc et al., Trends Genetics, 1994, 10, 41-42. Apoptosis is the function that controls the death of a biological unit in a programmed manner.
Hippocampal neurons (obtained as described in Example 1) were cultured in 24 well plates (Nunc) at a density of 100,000 cells/well.
After 7 days under culture, β-amyloid peptide 1-40 (Aβ1-40) (Amyloid βProtein (1-40) trifluoroacetate salt, Bachem) (20 μM) was added and the cells were incubated for 72 h.
In order to study the inhibitory effect of the compound of formula (I), the cells were pre-incubated for 15 minutes with said compound at a concentration of 30 μM prior to the addition of the β-amyloid peptide, Aβ1-40.
After 72 h, the cells were fixed and the apoptotic neurons were detected by means of the TUNEL technique (Sgonc, R. et al. (1994) Trends Genetics 10, 41-42) with the in situ “cell death detection” kit, POD (Roche). In said kit, fluorescein-dUTP was used to label the DNA chain cleavage, which makes it possible to directly visualise the staining of the nuclei of the apoptotic neurons in the fluorescence microscope.
Parallel to this, the neuronal nuclei were stained with a specific monoclonal antibody (mouse anti-neuronal nuclei (NeuN) monoclonal antibody, 0.5 μg/ml, Chemicon) and a secondary anti-mouse Cy3 antibody (3.75 μg/ml, Jackson Immunoresearch Laboratories).
The quantification was performed by counting the positive nuclei following the TUNEL staining in 3 random fields and expressed as the % of dead neurons with respect to the total number of neurons in each field. Each inhibitor was assayed in triplicate in 4 independent experiments.
As a negative control, cells cultured for the same period of time, without treatment with the β-amyloid peptide (measurement of baseline spontaneous apoptosis), were used. As a positive control of 100% apoptosis, treatment with DNAse (20 U/ml) was used, following the procedure indicated in the commercial kit.
The value of the positive control (treatment with DNAse) was considered to be 100 and the rest of the measurements were adjusted in relation to this value.

[1] = 15 minutes pre-incubation with inhibitor (compound of formula (I) 30 μM), then Aβ1-40 20 μM for 72 h, DNAse positive control = 100, negative control 0.4

| Compound | inhibition of the activation of the protein kinase Erk 1/2 induced by tPA (in words) (protein kinase Erk 1/2; ELISA, hippocampal neurons) | normalised Erk 1/2 values, Mean value (arbitrary units) (protein kinase Erk 1/2) | apoptosis of nerve cells, Mean value (%) of dead neurons (Hippocampal neurons; [1]) | inhibition of the apoptosis induced by the β-amyloid peptide (in words) (Hippocampal neurons; TUNEL, neurons cultured in vitro) | apoptosis of nerve cells, Mean value (%) of dead neurons (Hippocampal neurons; Aβ1-40 20 μM alone for 72 h, no inhibitor, DNAse positive control = 100) |
| --- | --- | --- | --- | --- | --- |
| NCC12CCC3CC(CC3C1)C2 (centres unmarked) [Compound of formula (I)] | effectively inhibits | 0.61 arbitrary units | 2.8% | efficiently inhibited |  |
| C[C@]12N[C@H](Cc3ccccc31)c1ccccc12 [Dizocilpine (MK-801), dizocilpine] |  | 0.73 arbitrary units |  |  |  |
| CC12CC3CC(C)(C1)CC(N)(C3)C2 [Memantine, memantine] |  | 0.75 arbitrary units | 4% |  |  |
| Amyloid βProtein (1-40) trifluoroacetate salt [β-amyloid peptide (Aβ1-40)] |  |  |  |  | 83.8% |
